Measured values: patent publication US10865204B2, “Degradation of cyclin-dependent kinase 4/6 (CDK4/6) by conjugation of CDK4/6 inhibitors with E3 ligase ligand and methods of use” (Dana-Farber Cancer Institute, Inc., priority 2016, dated 2020)

Legend:
[1] = target: T1, CDK4 (Homo sapiens, UniProt P11802); experiment: Enzyme degradation assay (western blot), Jurkat cells, CDK4; format: cell-based; set-up: levels of CDK4, CDK6, and tubulin in wild-type (WT) or cereblon knockout (CRBN−/−) Molt4 cells; endogenous in cells; details: 5 μM, various time points, FIG. 1
T1 sequence (P11802 whole entry): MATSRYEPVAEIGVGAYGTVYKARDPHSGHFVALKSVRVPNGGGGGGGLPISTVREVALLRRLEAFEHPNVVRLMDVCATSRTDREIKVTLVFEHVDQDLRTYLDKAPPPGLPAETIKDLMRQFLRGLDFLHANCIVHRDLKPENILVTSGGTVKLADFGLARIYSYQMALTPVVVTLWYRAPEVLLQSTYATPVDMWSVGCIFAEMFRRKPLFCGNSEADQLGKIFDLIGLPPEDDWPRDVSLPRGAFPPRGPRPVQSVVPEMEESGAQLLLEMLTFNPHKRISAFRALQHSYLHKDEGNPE
From the text: (§1) Lysates are then cleared by centrifugation.
(§2) Lysates were then cleared by centrifugation.

[2] = target: T1, CDK4; experiment: Enzyme degradation assay (western blot), Molt4 wild-type cells, CDK4; format: cell-based; set-up: levels of CDK4, CDK6, and tubulin in wild-type (WT) or cereblon knockout (CRBN−/−) Molt4 cells; endogenous in cells; host or cells: Molt4 cells, wild-type or cereblon knockout (CRBN-/-); details: wild-type (WT) Molt4 cells, various concentrations, FIG. 2
From the text: as §1, §2

## CC(=O)c1c(C)c2cnc(Nc3ccc(N4CCN(CC(=O)NCCOCCOCCOCCNc5cccc6c5C(=O)N(C5CCC(=O)NC5=O)C6=O)CC4)cn3)nc2n(C2CCCC2)c1=O (centres unmarked) [Compound I-3, 2-(4-(6-((6-acetyl-8-cyclopentyl-5-methyl-7-oxo-7,8-dihydropyrido[2,3-d]pyrimidin-2-yl)amino)pyridin-3-yl)piperazin-1-yl)-N-(2-(2-(2-(2-((2-(2,6-dioxopiperidin-3-yl)-1,3-dioxoisoindolin-4-yl)amino)ethoxy)ethoxy)ethoxy)ethyl)acetamide]
[1]
  levels of CDK4 (western blot): unaffected
[2]
  levels of CDK4 (western blot): unaffected
